Data reported in US20260226493A1, “HERBICIDE RESISTANT PLANTS” (SYNGENTA CROP PROTECTION AG, priority 2023, published 2026).

How the values were obtained:
[1] = target: T1, Arabidopsis thaliana BioDA variant enzymes (Arabidopsis thaliana, UniProt B0F481); experiment: biochemical
T1 construct: with the predicted N-terminal mitochondrial transit peptide removed; 6xHis-tag (N); thrombin cleavage site (N); made in house; host or cells: E. coli BL21 (DE3) bioA
Protocol: (§1) These plasmids were then expressed in E. coli BL21 (DE3) bioA with 50 μg/mL kanamycin and 25 μg/mL chloramphenicol selection. Overnight cultures grown at 37° C. were used to inoculate 8×500 mL AIM in shake flasks at a ratio of 1:100. Cultures were grown at 37° C., 200 rpm for 3.5 hours and then overnight at 20° C. Cells were harvested by centrifugation for 30 minutes at 10 000 g. Cells were stored at −80° C. until extraction. 30 g of cell pellet from was thawed in 120 mL of IMAC buffer A (20 mM HEPES pH7.5, 25 mM imidazole, 500 mM sodium chloride, 0.15 mM pyridoxal phosphate, 0.5 mM TCEP, 1× complete Protease Inhibitor Tablet (Roche)). The resuspension was passed through a cell disrupter at 18 000 PSI and centrifuged at 50 000 g for 25 minutes at 4° C. The His-tagged BIO3-BIO1 protein was purified from the extract supernatant on an AKTA avant chromatography system (Cytiva) using a HisTrap FF column and eluted in IMAC buffer B ((20 mM HEPES pH7.5, 500 mM imidazole, 500 mM sodium chloride, 0.15 mM pyridoxal phosphate, 0.5 mM TCEP) followed by SEC using a HiLoad 26/60 Superdex200 column in SEC buffer (25 mM HEPES pH7.5, 150 mM sodium chloride, 0.15 mM pyridoxal phosphate, 0.5 mM TCEP). Protein concentration was measured and calculated using the absorbance at 280 nm. Extracts were diluted 1 in 4 and 10 uL was analysed by SDS PAGE.
(§2) To measure BIO3-BIO1 mutant enzyme activity in the presence of herbicide, herbicides were incubated with 20 μL of enzyme mix (100 mM EPPS pH 8.6, 0.1 mM pyridoxal phosphate, 0.1 mg/mL BSA, 50 nM BIO3-BIO1 enzyme) for 10 minutes at 20° C. in a well of a 96-well half-area black plate, followed by the addition of 20 μL of substrate mix (final concentration of 100 mM EPPS pH 8.6, 0.1 mM pyridoxal phosphate, 0.1 mg/mL BSA, 100 μM spermidine, 20 μM KAPA, 100 mM NaCO3) and further incubation for 75 minutes at 20° C. The reaction was terminated by the addition of 50 μL of derivatisation mix (final concentration of 250 mM borate NaOH pH 9.4, 3.6 mM o-phthalaldehyde, 7 mM β-mercaptoethanol, 17% (v/v) ethanol, 3.6% (v/v) methanol). The fluorescent product produced by the reaction of DAPA with o-phthalaldehyde and 7 mM β-mercaptoethanol was measured at 470 nm after excitation at 410 nm.
(§3) For IC50 calculations, appropriate dose responses of compounds L, M, B, K and G were used. Calculated percentage inhibitions were then input into GraphPad Prism 7 and IC50s calculated using the non-linear regression (vs. normalised response) equation.

[2] = target: T2, Arabidopsis thaliana BioDA variant enzymes (Arabidopsis thaliana, UniProt B0F481, C388D); experiment: biochemical
T2 construct: with the predicted N-terminal mitochondrial transit peptide removed; 6xHis-tag (N); thrombin cleavage site (N); made in house; host or cells: E. coli BL21 (DE3) bioA
T2 sequence (B0F481 24-833 C388D): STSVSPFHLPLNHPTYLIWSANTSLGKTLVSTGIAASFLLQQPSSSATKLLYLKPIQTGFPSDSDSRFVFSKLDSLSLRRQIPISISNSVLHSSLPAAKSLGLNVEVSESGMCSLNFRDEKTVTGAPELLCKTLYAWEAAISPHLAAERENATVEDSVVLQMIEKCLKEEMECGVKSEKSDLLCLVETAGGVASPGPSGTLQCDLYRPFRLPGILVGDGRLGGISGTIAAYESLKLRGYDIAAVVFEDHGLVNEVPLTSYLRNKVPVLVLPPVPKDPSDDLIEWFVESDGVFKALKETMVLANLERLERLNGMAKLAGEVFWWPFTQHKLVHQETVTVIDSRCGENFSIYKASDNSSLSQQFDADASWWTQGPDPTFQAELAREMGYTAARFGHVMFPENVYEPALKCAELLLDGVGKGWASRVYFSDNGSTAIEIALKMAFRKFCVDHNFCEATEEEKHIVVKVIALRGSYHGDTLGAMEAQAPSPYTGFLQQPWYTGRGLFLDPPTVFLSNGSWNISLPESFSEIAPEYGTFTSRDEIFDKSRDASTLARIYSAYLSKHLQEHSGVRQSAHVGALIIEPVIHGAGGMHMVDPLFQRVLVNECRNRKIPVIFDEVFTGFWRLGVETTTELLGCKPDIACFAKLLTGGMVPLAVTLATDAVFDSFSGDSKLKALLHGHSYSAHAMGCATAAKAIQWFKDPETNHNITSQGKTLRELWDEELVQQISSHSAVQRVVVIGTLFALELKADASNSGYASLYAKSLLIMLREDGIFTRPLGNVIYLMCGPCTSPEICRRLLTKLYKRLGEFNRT
Protocol: as §1, §2, §3

Question: With `O=C(O)CC1CCC(=O)N1Cc1cccc(F)c1F` (stereo not shown) [Compound G, 2-[1-[(2,3-difluorophenyl)methyl]-5-oxo-pyrrolidin-2-yl]acetic acid] as the compound, how does the IC50 [1] read?
Answer: The IC50 was 89 µM.

Question: What about the IC50 [2] of the same compound?
Answer: The IC50 was 361 µM.

Question: With `O=C(O)CC1CCC(=O)N1Cc1ccc(F)c(F)c1F` (stereo not shown) [Compound K, 2-[5-oxo-1-[(2,3,4-trifluorophenyl)methyl]pyrrolidin-2-yl]acetic acid] as the compound, how does the IC50 [1] read?
Answer: Its IC50 is 25 µM.

Question: What about the IC50 [2] of the same compound?
Answer: Its IC50 is 386 µM.
